Assay results reported in the OPERA property sets (Mansouri et al. 2018).

| logP | SMILES |
| --- | --- |
| 4.91 | CC#CC#CC#Cc1ccccc1 |
| 3.85 | CC#CC#CC#CC=CC(=O)OC |
| 2.45 | CC=CC#CC#CC=CC(=O)OC |
| 3.09 | O=CC=CC#CC#Cc1ccccc1 |
| 2.48 | OCC=CC#CC#Cc1ccccc1 |
| 2.09 | CC=CC#CC=C1C=CC(=O)O1 |
| 4.76 | CC=CC#CC#Cc1ccccc1 |
| 5.15 | C=CC#Cc1ccc(-c2cccs2)s1 |
| 4.6 | CC#CC#Cc1ccc(C#CC(Cl)COC(C)=O)s1 (stereo unspecified) |
| 3.91 | CC=CC#CC#CC#CC=CC(Cl)CO (stereo unspecified) |

| SMILES | logP |
| --- | --- |
| c1csc(-c2ccc(-c3cccs3)s2)c1 | 5.57 |
